Experimental data from patent publication US20250002475A1 (EPICS THERAPEUTICS, priority 2023, published 2025).

biological target: T1, recombinant METTL3/METTL14 complex (Homo sapiens, UniProt Q86U44); experiment: METTL3/14 Scintillation Proximity Assay (SPA), RNA methyltransferase activity; format: biochemical; conditions: 5.31 nM METTL3/14 complex, 250 nM RNA substrate, 1 μM 3H-SAM, 90 min; for compounds marked * best of the two separated forms
T1 construct: purchased Active Motif 311970; host or cells: Sf9 cells
T1 sequence (Q86U44 whole entry): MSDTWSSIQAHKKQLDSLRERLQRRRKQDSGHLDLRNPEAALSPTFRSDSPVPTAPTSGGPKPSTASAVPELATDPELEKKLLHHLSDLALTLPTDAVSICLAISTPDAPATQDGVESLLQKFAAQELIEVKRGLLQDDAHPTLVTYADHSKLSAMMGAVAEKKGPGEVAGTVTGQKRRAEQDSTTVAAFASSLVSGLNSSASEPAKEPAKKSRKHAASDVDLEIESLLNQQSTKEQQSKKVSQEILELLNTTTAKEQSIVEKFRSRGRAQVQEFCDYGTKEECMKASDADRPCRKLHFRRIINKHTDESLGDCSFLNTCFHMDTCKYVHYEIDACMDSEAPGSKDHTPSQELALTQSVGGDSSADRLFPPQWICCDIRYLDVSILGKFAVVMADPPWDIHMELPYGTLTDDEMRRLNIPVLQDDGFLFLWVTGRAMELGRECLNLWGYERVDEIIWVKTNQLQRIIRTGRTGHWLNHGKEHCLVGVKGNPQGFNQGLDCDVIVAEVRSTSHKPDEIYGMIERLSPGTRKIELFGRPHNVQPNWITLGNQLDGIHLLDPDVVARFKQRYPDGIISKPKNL
T1 sequence (Q9HCE5 whole entry partner): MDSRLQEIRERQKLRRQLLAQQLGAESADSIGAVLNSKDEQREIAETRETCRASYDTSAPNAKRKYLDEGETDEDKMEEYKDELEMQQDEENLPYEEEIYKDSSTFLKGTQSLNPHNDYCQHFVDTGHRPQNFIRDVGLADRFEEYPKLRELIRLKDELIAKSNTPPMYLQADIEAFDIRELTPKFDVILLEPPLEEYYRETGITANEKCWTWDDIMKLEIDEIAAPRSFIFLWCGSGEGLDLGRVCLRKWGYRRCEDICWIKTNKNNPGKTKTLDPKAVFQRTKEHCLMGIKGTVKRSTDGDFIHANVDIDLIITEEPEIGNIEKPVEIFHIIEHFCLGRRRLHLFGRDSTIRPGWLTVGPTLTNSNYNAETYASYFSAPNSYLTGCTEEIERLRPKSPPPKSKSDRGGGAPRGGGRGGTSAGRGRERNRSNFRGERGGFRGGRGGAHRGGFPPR

Q: How did the IC50 turn out when `CC(n1cc(-c2cncc(F)c2)nn1)n1ccc(N2CCC[C@@H](NCC3CCC3)C2)cc1=O` (stereo partly drawn) [Compound 094, 4-((R)-3-((cyclobutylmethyl)amino)piperidin-1-yl)-1-(1-(4-(5-fluoropyridin-3-yl)-1H-1,2,3-triazol-1-yl)ethyl)pyridin-2(1H)-one] was run?
A: ≤ 50 nM

Q: `CC(n1cc(-c2cncc(OC(F)F)c2)nn1)n1ccc(N2CCC[C@@H](NCC3CCC3)C2)cc1=O` (stereo partly drawn) [Compound 131] was tested. Which IC50 did it give?
A: ≤ 50 nM

Q: With `Cc1cncc(-c2cn(C(C)n3ccc(N4CCC[C@@H](NCC5CCC5)C4)cc3=O)nn2)c1` (mixture of isomers) [Compound 080, 4-((R)-3-((cyclobutylmethyl)amino)piperidin-1-yl)-1-(1-(4-(5-methylpyridin-3-yl)-1H-1,2,3-triazol-1-yl)ethyl)pyridin-2(1H)-one] as the compound, how does the IC50 read?
A: ≤ 50 nM

Q: How did the IC50 turn out when `C[C@H](NC(=O)c1cc(=O)n2ccccc2n1)c1ccc(N2CCC[C@@H](NCC3CCC3)C2)cc1` [Compound 074, N-((S)-1-(4-((R)-3-((cyclobutylmethyl)amino)piperidin-1-yl)phenyl)ethyl)-4-oxo-4H-pyrido[1,2-a]pyrimidine-2-carboxamide] was run?
A: ≤ 50 nM

Q: `O=C(Cc1ccc(N2CCC[C@@H](NCC3CCC3)C2)cn1)Nc1cncc(N2CCCC2)c1` [Compound 271, (R)-2-(5-(3-((cyclobutylmethyl)amino)piperidin-1-yl)pyridin-2-yl)-N-(5-(pyrrolidin-1-yl)pyridin-3-yl)acetamide] was tested. Which IC50 did it give?
A: ≤ 50 nM

Q: `COc1cncc(-c2cn(C(C)c3ccc(N4CCC[C@@H](NCC5CC5)C4)cn3)nn2)n1` (stereo partly drawn) [Compound 261, (3R)—N-(cyclopropylmethyl)-1-(6-(1-(4-(6-methoxypyrazin-2-yl)-1H-1,2,3-triazol-1-yl)ethyl)pyridin-3-yl)piperidin-3-amine] was tested. Which IC50 did it give?
A: ≤ 50 nM

Q: For `O=C(NCc1ccc(N2CCC[C@@H](NCC3CCC3)C2)nc1)c1cc(=O)n2ccccc2n1` [Compound 061, (R)-N-((6-(3-((cyclobutylmethyl)amino)piperidin-1-yl)pyridin-3-yl)methyl)-4-oxo-4H-pyrido[1,2-a]pyrimidine-2-carboxamide], which IC50 is on record?
A: ≤ 50 nM

Q: `O=C(Cc1ccc(N2CCC[C@@H](NCC3CCC3)C2)cn1)Nc1cncc(N2CCCC2)n1` [Compound 277, (R)-2-(5-(3-((cyclobutylmethyl)amino)piperidin-1-yl)pyridin-2-yl)-N-(6-(pyrrolidin-1-yl)pyrazin-2-yl)acetamide] was tested. Which IC50 did it give?
A: ≤ 50 nM

Q: With `COc1cncc(-c2cn(Cc3ccc(N4CCCC(C)(NCC5CCC5)C4)nn3)nn2)c1` (stereo not drawn) [Compound 053, N-(cyclobutylmethyl)-1-(6-((4-(5-methoxypyridin-3-yl)-1H-1,2,3-triazol-1-yl)methyl)pyridazin-3-yl)-3-methylpiperidin-3-amine] as the compound, how does the IC50 read?
A: 50 to 500 nM

Q: With `O=c1[nH]c(-c2cn(Cc3ccc(N4CCC[C@@H](NCC5CCC5)C4)nn3)nn2)cc2ccccc12` [Compound 048, (R)-3-(1-((6-(3-((cyclobutylmethyl)amino)piperidin-1-yl)pyridazin-3-yl)methyl)-1H-1,2,3-triazol-4-yl)isoquinolin-1(2H)-one] as the compound, how does the IC50 read?
A: ≤ 50 nM

Q: Which IC50 does the source give for `CC(n1cc(-c2cncc(Br)c2)nn1)n1ccc(N2CCC[C@@H](NCC3CCC3)C2)cc1=O` (single isomer, unassigned) [Compound 152] here?
A: ≤ 50 nM

Q: `COc1cncc(-c2cn(C3(c4ccc(N5CCC[C@@H](NCC6CCC6)C5)nn4)CC3)nn2)c1` [Compound 115, (R)-N-(cyclobutylmethyl)-1-(6-(1-(4-(5-methoxypyridin-3-yl)-1H-1,2,3-triazol-1-yl)cyclopropyl)pyridazin-3-yl)piperidin-3-amine] was tested. Which IC50 did it give?
A: ≤ 50 nM

Q: With `COc1cc(NC(=O)C2(c3ccc(N4CCC[C@@H](NCC5CCC5)C4)cn3)COC2)c2cn[nH]c2c1` [Compound 273, (R)-3-(5-(3-((cyclobutylmethyl)amino)piperidin-1-yl)pyridin-2-yl)-N-(6-methoxy-1H-indazol-4-yl)oxetane-3-carboxamide] as the compound, how does the IC50 read?
A: ≤ 50 nM

Q: With `COc1cncc(-c2cc(C(C)n3ccc(N4CCC[C@@H](NCC5CCC5)C4)cc3=O)sn2)c1` (mixture of isomers) [Compound 204, 4-((R)-3-((cyclobutylmethyl)amino)piperidin-1-yl)-1-(1-(3-(5-methoxypyridin-3-yl)isothiazol-5-yl)ethyl)pyridin-2(1H)-one] as the compound, how does the IC50 read?
A: ≤ 50 nM

Q: For `c1cc(N2CCC[C@@H](NCC3CCC3)C2)nnc1Cn1cc(-c2csc3cncn23)nn1` [Compound 034, (R)-N-(cyclobutylmethyl)-1-(6-((4-(imidazo[5,1-b]thiazol-3-yl)-1H-1,2,3-triazol-1-yl)methyl)pyridazin-3-yl)piperidin-3-amine], which IC50 is on record?
A: ≤ 50 nM

Q: Which IC50 does the source give for `COc1cncc(-n2cc(C(C)n3ccc(N4CCC[C@@H](NCC5CCC5)C4)cc3=O)cn2)c1` (mixture of isomers) [Compound 120, 4-((R)-3-((cyclobutylmethyl)amino)piperidin-1-yl)-1-(1-(1-(5-methoxypyridin-3-yl)-1H-pyrazol-4-yl)ethyl)pyridin-2(1H)-one] here?
A: ≤ 50 nM

Q: `CC(n1cnc(-c2cc(=O)n3ccccc3n2)c1)n1ccc(N2CCC[C@@H](NCC3CCC3)C2)cc1=O` (single isomer, unassigned) [Compound 170] was tested. Which IC50 did it give?
A: ≤ 50 nM

Q: How did the IC50 turn out when `CC(n1cc(-c2cncc(Cl)c2)nn1)n1ccc(N2CCC[C@@H](NCC3CCC3)C2)cc1=O` (mixture of isomers) [Compound 078, 1-(1-(4-(5-chloropyridin-3-yl)-1H-1,2,3-triazol-1-yl)ethyl)-4-((R)-3-((cyclobutylmethyl)amino)piperidin-1-yl)pyridin-2(1H)-one] was run?
A: ≤ 50 nM

Q: With `COc1cncc(-c2cn(Cc3ccc(N4CCCCC(NCC5CCC5)C4)nn3)nn2)c1` (stereo not drawn) [Compound 101, N-(cyclobutylmethyl)-1-(6-((4-(5-methoxypyridin-3-yl)-1H-1,2,3-triazol-1-yl)methyl)pyridazin-3-yl)azepan-3-amine] as the compound, how does the IC50 read?
A: 50 to 500 nM

Q: Which IC50 does the source give for `CC(c1cnn(-c2cc(N(C)C)cnn2)c1)n1ccc(N2CCC[C@@H](NCC3CC3)C2)cc1=O` (mixture of isomers) [Compound 224, 4-((R)-3-((cyclopropylmethyl)amino)piperidin-1-yl)-1-(1-(1-(5-(dimethylamino)pyridazin-3-yl)-1H-pyrazol-4-yl)ethyl)pyridin-2(1H)-one] here?
A: ≤ 50 nM

Q: How did the IC50 turn out when `CC(c1ccc(N2CCC[C@@H](NCC3CCC3)C2)nn1)n1cc(-c2cc(=O)n3ccccc3n2)nn1` (stereo partly drawn) [Compound 089, 2-(1-(1-(6-((R)-3-((cyclobutylmethyl)amino)piperidin-1-yl)pyridazin-3-yl)ethyl)-1H-1,2,3-triazol-4-yl)-4H-pyrido[1,2-a]pyrimidin-4-one] was run?
A: ≤ 50 nM

Q: How did the IC50 turn out when `CC(n1cc(-c2cccnc2)nn1)n1ccc(N2CCC[C@@H](NCC3CCC3)C2)cc1=O` (stereo partly drawn) [Compound 079, 4-((R)-3-((cyclobutylmethyl)amino)piperidin-1-yl)-1-(1-(4-(pyridin-3-yl)-1H-1,2,3-triazol-1-yl)ethyl)pyridin-2(1H)-one] was run?
A: ≤ 50 nM

Q: `COc1cncc(C(=O)NCc2ccc(N3CCC[C@@H](NCC4CCC4)C3)nn2)c1` [Compound 004, (R)-N-((6-(3-((cyclobutylmethyl)amino)piperidin-1-yl)pyridazin-3-yl)methyl)-5-methoxynicotinamide] was tested. Which IC50 did it give?
A: 500 to 3500 nM

Q: With `CC(NC(=O)c1cc(=O)n2ccccc2n1)c1ccc(N2CCC[C@@H](NC3CCCC3)C2)cn1` (single isomer, unassigned) [Compound 117] as the compound, how does the IC50 read?
A: 50 to 500 nM

Q: With `CC(n1cc(-c2cncc(-n3cccn3)c2)nn1)n1ccc(N2CCC[C@@H](NCC3CCC3)C2)cc1=O` (mixture of isomers) [Compound 146, 1-(1-(4-(5-(1H-pyrazol-1-yl)pyridin-3-yl)-1H-1,2,3-triazol-1-yl)ethyl)-4-((R)-3-((cyclobutylmethyl)amino)piperidin-1-yl)pyridin-2(1H)-one] as the compound, how does the IC50 read?
A: ≤ 50 nM

Q: How did the IC50 turn out when `COc1cncc(-c2cn(C(C)n3ccc(N4CCC[C@@H](NCC5CCC5)C4)cc3=O)nn2)n1` (single isomer, unassigned) [Compound 105] was run?
A: ≤ 50 nM

Q: `CC(NC(=O)c1cc(=O)n2ccccc2n1)c1ccc(N2CCC[C@@H](NCC3CCC3)C2)nc1` (stereo partly drawn) [Compound 072, N-(1-(6-((R)-3-((cyclobutylmethyl)amino)piperidin-1-yl)pyridin-3-yl)ethyl)-4-oxo-4H-pyrido[1,2-a]pyrimidine-2-carboxamide] was tested. Which IC50 did it give?
A: 50 to 500 nM

Q: For `O=C(NCc1ccc(N2CCCC(N3CCC4(CC3)CC4)C2)nn1)c1cc(=O)n2ccccc2n1` (stereo not drawn) [Compound 014, N-((6-(3-(6-azaspiro[2.5]octan-6-yl)piperidin-1-yl)pyridazin-3-yl)methyl)-4-oxo-4H-pyrido[1,2-a]pyrimidine-2-carboxamide], which IC50 is on record?
A: 50 to 500 nM

Q: With `CC(n1cnc(-c2cncc(N(C)C)c2)c1)n1ccc(N2CCC[C@@H](NCC3CC3)C2)cc1=O` (single isomer, unassigned) [Compound 266] as the compound, how does the IC50 read?
A: ≤ 50 nM

Q: How did the IC50 turn out when `O=c1[nH]c(-c2cn(Cc3ccc(N4CCC[C@@H](NCC5CCC5)C4)nn3)nn2)nc2ccccc12` [Compound 029, (R)-2-(1-((6-(3-((cyclobutylmethyl)amino)piperidin-1-yl)pyridazin-3-yl)methyl)-1H-1,2,3-triazol-4-yl)quinazolin-4(3H)-one] was run?
A: 50 to 500 nM

Q: Which IC50 does the source give for `COc1cc(-c2cn(C(C)n3ccc(N4CCC[C@@H](NCC5CCC5)C4)cc3=O)nn2)cnc1C` (stereo partly drawn) [Compound 104, 4-((R)-3-((cyclobutylmethyl)amino)piperidin-1-yl)-1-(1-(4-(5-methoxy-6-methylpyridin-3-yl)-1H-1,2,3-triazol-1-yl)ethyl)pyridin-2(1H)-one] here?
A: 50 to 500 nM

Q: How did the IC50 turn out when `CC(C(=O)Nc1cncc(N(C)C)c1)c1ccc(N2CCC[C@@H](NCC3CCC3)C2)nn1` (stereo partly drawn) [Compound 157, 2-(6-((R)-3-((cyclobutylmethyl)amino)piperidin-1-yl)pyridazin-3-yl)-N-(5-(dimethylamino)pyridin-3-yl)propanamide] was run?
A: 50 to 500 nM

Q: How did the IC50 turn out when `COc1cncc(-c2cn(C(C)n3ccc(N4CCC[C@@H](NCC5CCC5)C4)cc3=O)nn2)c1C` (stereo partly drawn) [Compound 108, 4-((R)-3-((cyclobutylmethyl)amino)piperidin-1-yl)-1-(1-(4-(5-methoxy-4-methylpyridin-3-yl)-1H-1,2,3-triazol-1-yl)ethyl)pyridin-2(1H)-one] was run?
A: ≤ 50 nM
